Where a SMILES comes first, the peptide text is derived from it.
Tests used:
C. krusei NCPF 3876 = experiment: microbe, parasite or virus in culture; format: cell-based
Outline: (§1)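 Peptides 128→2 μg/mL, 2-fold series; inoculum ~5 × 10^5 CFU/mL from overnight culture (OD600 0.01, mixed 1:1). MHB non-cation-adjusted for bacteria, RPMI 1640 + 2% glucose for fungi. 37 °C, 20 h, OD600. MIC50/MIC90 at 50%/90% inhibition; n ≥ 3.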

C. albicans NCPF 3281 = experiment: microbe, parasite or virus in culture; format: cell-based
Outline: as §1

C. glabrata NCPF 8018 = experiment: microbe, parasite or virus in culture; format: cell-based
Outline: as §1

C. tropicalis NCPF 8760 = experiment: microbe, parasite or virus in culture; format: cell-based
Outline: as §1

[1] = tested on: C. parapsilosis NCPF 3209; experiment: microbe, parasite or virus in culture; format: cell-based
Outline: as §1

[2] = RP-HPLC ElutionTime as indicator of hydrophobicity; format: physicochemical; conditions: indicator of overall hydrophobicity; semipreparative RP-HPLC, Waters SymmetryPrep C8, water/ACN gradient with 0.1% TFA, 8 mL/min, 25 °C, 254 nm
Description: Crude peptides, made up to 10 mg/mL in 0.1% TFA (v/v) in ddH2O, were subjected to preparative RP-HPLC purification on an Agilent 1100 system, with elution in gradient. A gradient program at a flow rate of 8 mL/min and column temperature of 25 °C was used to achieve elution with solvent A (0.1% trifluoroacetic acid (TFA) in water (v/v)) and solvent B (0.1% TFA in 100% acetonitrile (ACN) (v/v)). The elution program was as follows: (1) At 0–73 min, 100% solvent A to 0% solvent B; (2) at 73–77 min, 40% solvent A to 60% solvent B; (3) at 77–93 min, 10% solvent A to 90% solvent B; (4) at 93–105 min, 100% solvent A to 0% solvent B. Data collected were the retention time of the major fraction for each peptide in minutes as RP-HPLC ElutionTime (ElutionTime). Absorbance was detected at 254 nm, and fractions were collected manually. The fractions collected were spun in a speed-vac to remove ACN and the contents lyophilized. After freeze-drying for 24 h the peptides were dissolved in 10% (v/v) acetic acid before being lyophilized for a second time and then stored at −20 °C.
Molecular descriptors used in the QSAR analysis included: charge, sequence length, overall lipophilicity (L), lipophilicity contributed by the polar or nonpolar residues (LP and LN), summation of the side chain surface areas of the total peptide, polar or nonpolar residues (SCSA, SCSAP, and SCSAN), the molecular weight of the entire peptide, polar or nonpolar residues (Mw, MwP, and MwN), count of small lipophilic residues (CSL) or aromatic residues (CAR), the total number of hydrogen bond donor and acceptor centers (HBtot, HBdon, and HBacc), the total number of rotatable bonds (#RotBonds) and various amphipathicity descriptors (LP/L, LP/LN, L/LN, Q/L, Q/LN, SCSAP/SCSAN, MwP/MwN, Q/CSL, and Q/CAR) (Suppl. Table S1). Experimentally determined characteristics included ElutionTime as an indicator of overall peptide hydrophobicity and the CD structure of each peptide determined in POPG/POPE lipids representing Gram-negative membranes, POPG lipids for Gram-positive membranes, and SDS micelles for fungal membranes. AMPs with an α-helical structure were labeled 4, β-sheets were labeled 3, β-turns and mixed conformations were labeled 2, and disordered structures were labeled 1.

S. aureus (MRSA) 1199B = experiment: microbe, parasite or virus in culture; format: cell-based, Staphylococcus aureus; conditions: S. aureus (MRSA) 1199B (R); shown in µM
Outline: as §1

C. auris TDG 1912 = experiment: microbe, parasite or virus in culture; format: cell-based, Candida auris
Outline: as §1

[3] = tested on: eight Gram-negative, four Gram-positive bacteria, and six fungi; experiment: Antimicrobial screening against panel of 18 pathogens; format: cell-based; conditions: 128 to 2 μg/mL, 37 °C, 20 h
Description: Antimicrobial activity was evaluated against a panel of 18 pathogens consisting of eight Gram-negative strains (E. coli NCTC 12923, E. coli LEC001, Pseudomonas aeruginosa PAO1, P. aeruginosa NCTC 13437, Acinetobacter baumannii ATCC 17978, A. baumannii AYE, Klebsiella pneumoniae M6, K. pneumoniae NCTC 13368), four Gram-positive strains (Staphylococcus aureus ATCC 9144, S. aureus NCTC 13616, S. aureus USA300, S. aureus 1199B) and six fungi (Candida auris TDG 1912, C. albicans NCPF 8018, C. krusei NCPF 3876, C. tropicalis NCPF 8760, and C. parapsilosis NCPF 3209). Pathogens were grown in noncation adjusted Mueller Hinton broth (MHB, for bacteria) or Roswell Park Memorial Institute (RPMI 1640) + 2% glucose (for fungi) at 37 °C with 180 rpm shaking and maintained on solid media (tryptic soy agar for bacteria and Sabouraud dextrose agar for fungi). For an antibiogram, see Suppl.
The 46 peptides were serially diluted (128 to 2 μg/mL) in media down polypropylene 96-well plates. […] Plates were incubated at 37 °C for 20 h, and the optical density was determined spectrophotometrically at 600 nm. Minimum inhibition concentrations (MICs) were determined from a minimum of three biological repeats and are reported in μg/mL as well as μM. […]

Row | SMILES | Modal MIC50 (C. krusei NCPF 3876; NCPF 3876, 20 h) [µM] | Modal MIC90 (C. krusei NCPF 3876; NCPF 3876, 20 h) [µM] | Modal MIC50 (C. albicans NCPF 3281; NCPF 3281, 20 h) [µM] | Modal MIC90 (C. albicans NCPF 3281; NCPF 3281, 20 h) [µM] | Modal MIC50 (C. glabrata NCPF 8018; NCPF 8018, 20 h) [µM] | Modal MIC90 (C. glabrata NCPF 8018; NCPF 8018, 20 h) [µM] | Modal MIC50 (C. tropicalis NCPF 8760; NCPF 8760, 20 h) [µM] | Modal MIC90 (C. tropicalis NCPF 8760; NCPF 8760, 20 h) [µM] | Modal MIC50 ([1]; NCPF 3209, 20 h) [µM] | Modal MIC90 ([1]; NCPF 3209, 20 h) [µM] | ElutionTime (RP-HPLC retention time of major fraction) [2] [min] | antimicrobial activity in the screens [3] | other results
1 | CC(C)[C@H](NC(=O)CNC(=O)[C@H](CCCNC(=N)N)NC(=O)[C@@H](N)CCCNC(=N)N)C(=O)N[C@@H](CS)C(=O)N[C@@H](CCCNC(=N)N)C(=O)N[C@@H](CS)C(=O)N[C@H](C(=O)N[C@@H](CS)C(=O)N[C@@H](CCCNC(=N)N)C(=O)N[C@@H](CCCNC(=N)N)C(N)=O)C(C)C [BTD11a] (H-RRGVCRCVCRR-NH2; N-terminus assumed) | 23.5 | 23.5 | 23.5 | 47 | 11.8 | 23.5 | 0.7 | 1.5 | 2.9 | 11.8 | 16 |  | Modal MIC50 (C. krusei NCPF 3876; C. krusei NCPF 3876, 50% growth inhibition, RPMI 1640 + 2% glucose, 37 °C, 20 h): 32 µg/mL; Modal MIC90 (C. krusei NCPF 3876; C. krusei NCPF 3876, 90% growth inhibition, RPMI 1640 + 2% glucose, 37 °C, 20 h): 32 µg/mL; Modal MIC50 (C. albicans NCPF 3281; C. albicans NCPF 3281, 50% growth inhibition, RPMI 1640 + 2% glucose, 37 °C, 20 h): 32 µg/mL; Modal MIC90 (C. albicans NCPF 3281; C. albicans NCPF 3281, 90% growth inhibition, RPMI 1640 + 2% glucose, 37 °C, 20 h): 64 µg/mL; Modal MIC50 (C. glabrata NCPF 8018; C. glabrata NCPF 8018, 50% growth inhibition, RPMI 1640 + 2% glucose, 37 °C, 20 h): 16 µg/mL; Modal MIC90 (C. glabrata NCPF 8018; C. glabrata NCPF 8018, 90% growth inhibition, RPMI 1640 + 2% glucose, 37 °C, 20 h): 32 µg/mL; Modal MIC50 (C. tropicalis NCPF 8760; C. tropicalis NCPF 8760, 50% growth inhibition, RPMI 1640 + 2% glucose, 37 °C, 20 h): 1 µg/mL; Modal MIC90 (C. tropicalis NCPF 8760; C. tropicalis NCPF 8760, 90% growth inhibition, RPMI 1640 + 2% glucose, 37 °C, 20 h): 2 µg/mL; Modal MIC50 ([1]; C. parapsilosis NCPF 3209, 50% growth inhibition, RPMI 1640 + 2% glucose, 37 °C, 20 h): 4 µg/mL; Modal MIC90 ([1]; C. parapsilosis NCPF 3209, 90% growth inhibition, RPMI 1640 + 2% glucose, 37 °C, 20 h): 16 µg/mL; Modal MIC (S. aureus (MRSA) 1199B): > 94 µM; Modal MIC50 (C. auris TDG 1912; C. auris TDG 1912, 50% growth inhibition, RPMI 1640 + 2% glucose, 37 °C, 20 h, OD600): 64 µg/mL; Modal MIC50 (C. auris TDG 1912; TDG 1912, 20 h): 47 µM; Modal MIC90 (C. auris TDG 1912; TDG 1912, 20 h): > 94 µM
2 | CC(C)[C@H](NC(=O)[C@H](CS)NC(=O)[C@@H](N)CCCNC(=N)N)C(=O)N[C@@H](CS)C(=O)N[C@H](C(=O)N[C@@H](CCCNC(=N)N)C(=O)NCC(=O)N[C@@H](Cc1ccccc1)C(=O)N[C@@H](CS)C(=O)O)[C@@H](C)O [ThetaDefA] (H-RCVCTRGFC-OH; N-terminus and C-terminus assumed) | > 122.6 | > 122.6 | > 122.6 | > 122.6 | > 122.6 | > 122.6 | > 122.6 | > 122.6 | > 122.6 | > 122.6 | 22 | no activity | 
3 | CC(C)[C@H](NC(=O)CNC(=O)[C@H](CCCNC(=N)N)NC(=O)[C@H](CCCNC(=N)N)NC(=O)[C@H](CS)NC(=O)[C@@H](NC(=O)[C@H](CS)NC(=O)[C@@H](N)CCCNC(=N)N)C(C)C)C(=O)N[C@@H](CS)C(=O)O [ThetaDefB] (H-RCVCRRGVC-OH; N-terminus and C-terminus assumed) | > 116.4 | > 116.4 | > 116.4 | > 116.4 | > 116.4 | > 116.4 | > 116.4 | > 116.4 | > 116.4 | > 116.4 | 20 | no activity | 

Source: paper PMC11191095, “QSAR Reveals Decreased Lipophilicity of Polar Residues Determines the Selectivity of Antimicrobial Peptide Activity” (ACS Omega, 2024)
